{
  "source": "paper PMC7391080",
  "about": "(2020)",
  "system": "Sap9",
  "assay": "6 ng/μL Sap9 in 2 mM sodium phosphate buffer",
  "settings": "37 °C, up to 3 h",
  "note": "“And” between values parts separate entries of the source, which are not always exact repeats. Equal values may be shown once.",
  "data": [
    {"sequence": "DSHAKRHHGYKRKFHEKHHSHRGY", "values": [
      {"measurement": "fragment found", "result": "6–24, major and 7–24, major and 13–24, major and 14–24, major"}
    ]}
  ]
}
